Reference: PubChem BioAssay AID1963972 (Molecular Pharmacology Branch, DTP, NCI, 2024)

Test system: 945468-187-T-J2-PDC spheroids viability
Experiment: Anticancer human tumor 945468-187-T-J2-PDC patient-derived rectal carcinoma cell line growth inhibition [PI3K]
Conditions: spheroids with HUVEC and MSC; for IC50: curve of first compound; for viability, T/C: stronger effect = lower value
Summary of the method: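 We assembled tumor spheroids that included a stromal compartment of HUVEC and MSCs, then exposed them to targeted agents alone and together with PI3K pathway inhibitors. Concentration series descended by half-log from clinically achievable Cmax levels. Viability served as the endpoint.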
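Note: spheroids exposed to compounds for seven days before reading.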

Structure (SMILES): Cn1cnc2c(F)c(Nc3ccc(Br)cc3Cl)c(C(=O)NOCCO)cc21 + Cc1nc(NC(=O)N2CCCC2C(N)=O)sc1-c1ccnc(C(C)(C)C(F)(F)F)c1
- IC50 (second compound 0.0316 µM): > 3000 nM
- IC50 (second compound 0.1 µM): > 3000 nM
- IC50 (second compound 0.316 µM): > 3000 nM
- IC50 (second compound 1 µM): > 3000 nM
- IC50 (second compound 3.16 µM): 2600 nM
- IC50 (second compound 10 µM): 895 nM
- viability, T/C (second compound 0.0316 µM, first compound 0.00949 µM): 87.9%
- viability, T/C (second compound 0.0316 µM, first compound 0.03 µM): 73.6%
- viability, T/C (second compound 0.0316 µM, first compound 0.0949 µM): 79.8%
- viability, T/C (second compound 0.0316 µM, first compound 0.3 µM): 71.8%
- viability, T/C (second compound 0.0316 µM, first compound 0.949 µM): 66.7%
- viability, T/C (second compound 0.0316 µM, first compound 3 µM): 62%
- viability, T/C (second compound 0.1 µM, first compound 0.00949 µM): 110%
- viability, T/C (second compound 0.1 µM, first compound 0.03 µM): 84.5%
- viability, T/C (second compound 0.1 µM, first compound 0.0949 µM): 88.9%
- viability, T/C (second compound 0.1 µM, first compound 0.3 µM): 77.4%
- viability, T/C (second compound 0.1 µM, first compound 0.949 µM): 70.9%
- viability, T/C (second compound 0.1 µM, first compound 3 µM): 63.1%
- viability, T/C (second compound 0.316 µM, first compound 0.00949 µM): 99%
- viability, T/C (second compound 0.316 µM, first compound 0.03 µM): 74.1%
- viability, T/C (second compound 0.316 µM, first compound 0.0949 µM): 82.4%
- viability, T/C (second compound 0.316 µM, first compound 0.3 µM): 75.1%
- viability, T/C (second compound 0.316 µM, first compound 0.949 µM): 68.7%
- viability, T/C (second compound 0.316 µM, first compound 3 µM): 69.4%
- viability, T/C (second compound 1 µM, first compound 0.00949 µM): 71.7%
- viability, T/C (second compound 1 µM, first compound 0.03 µM): 114%
- viability, T/C (second compound 1 µM, first compound 0.0949 µM): 80.6%
- viability, T/C (second compound 1 µM, first compound 0.3 µM): 76.6%
- viability, T/C (second compound 1 µM, first compound 0.949 µM): 66.5%
- viability, T/C (second compound 1 µM, first compound 3 µM): 55.6%
- viability, T/C (second compound 3.16 µM, first compound 0.00949 µM): 68.6%
- viability, T/C (second compound 3.16 µM, first compound 0.03 µM): 78%
- viability, T/C (second compound 3.16 µM, first compound 0.0949 µM): 97.3%
- viability, T/C (second compound 3.16 µM, first compound 0.3 µM): 67.8%
- viability, T/C (second compound 3.16 µM, first compound 0.949 µM): 70.8%
- viability, T/C (second compound 3.16 µM, first compound 3 µM): 47.1%
- viability, T/C (second compound 10 µM, first compound 0.00949 µM): 77.3%
- viability, T/C (second compound 10 µM, first compound 0.03 µM): 68.2%
- viability, T/C (second compound 10 µM, first compound 0.0949 µM): 68.8%
- viability, T/C (second compound 10 µM, first compound 0.3 µM): 61.2%
- viability, T/C (second compound 10 µM, first compound 0.949 µM): 51.8%
- viability, T/C (second compound 10 µM, first compound 3 µM): 10.5%
